Measured values published in patent EP0819688A1, “4-substituted benzofuranes” (Byk Gulden Lomberg Chemische Fabrik GmbH, priority 1996, dated 1998).

Test system: PDE IV
Assay: Inhibition of PDE IV activity (method of Bauer and Schwabe, adapted to microtiter plates)
Format: biochemical
Conditions: Hemmung der PDE IV-Aktivität
From the text: Der Aktivitätstest wurde nach der Methode von Bauer und Schwabe durchgeführt, die auf Mikrotiterplatten adaptiert wurde (Naunyn-Schmiedeberg's Arch. Pharmacol. 1980, 311, 193-198). Hierbei erfolgt im ersten Schritt die PDE-Reaktion. In einem zweiten Schritt wird das entstandene 5'-Nukleotid durch eine 5'-Nukleotidase des Schlangengiftes von ophiophagus hannah (King Cobra) zum ungeladenen Nukleosid gespalten. Im dritten Schritt wird das Nukleosid auf Ionenaustauschsäulen vom verbliebenen geladenen Substrat getrennt. Die Säulen werden mit 2 ml 30 mM Ammoniumformiat (pH 6,0) direkt in Minivials eluiert, in die noch 2 ml Szintillatorflüssigkeit zur Zählung gegeben wird.
Die für die erfindungsgemäßen Verbindungen ermittelten Hemmwerte ergeben sich aus der folgenden Tabelle A, in der die Nummern der Verbindungen den Nummern der Beispiele entsprechen. Tabelle A

| Compound | PDE4 -logIC50 |
| --- | --- |
| COc1ccc(/C=C(\C#N)c2cccnc2)c2cc(C3CCCC3)oc12 [Verbindung 8, (Z)-4-[2-Cyano-2-(pyrid-3-yl)ethenyl]-2-cyclopentyl-7-methoxy-benzofuran] | 6,51 |
| COc1ccc(CCc2ccncc2)c2cc(C3CCCC3)oc12 [Verbindung 5, 2-Cyclopentyl-7-methoxy-4-[2-(pyrid-4-yl)ethyl]benzofuran] | 7,97 |
| COc1ccc(CCc2ccncc2)c2cc(C(C)C)oc12 [Verbindung 6, 2-Isopronyl-7-methoxy-4-[2-(pyrid-4-yl)ethyl]benzofuran] | 8,22 |
| COc1ccc(CC(C#N)c2ccncc2)c2cc(C3CCCC3)oc12 (racemic) [Verbindung 10, (±)-4-[2-Cyano-2-(pyrid-4-yl)ethyl]-2-cyclopentyl-7-methoxybenzofuran] | 6,56 |
| COc1ccc(CC(C#N)c2cccnc2)c2cc(C3CCCC3)oc12 (racemic) [Verbindung 11, (±)-4-[2-Cyano-2-(pyrid-3-yl)ethyl]-2-cyclopentyl-7-methoxybenzofuran] | 6,99 |
| COc1ccc(C=C(C#N)c2ccncc2)c2cc(C(C)C)oc12 (mixture of isomers) [Verbindung 9, (E/Z)-4-[2-Cyano-2-(pyrid-4-yl)ethenyl]-2-isopropyl-7-methoxybenzofuran] | 6,64 |
| COc1ccc(C(O)Cc2ccncc2)c2cc(C3CCCC3)oc12 (racemic) [Verbindung 1] | 6,45 |
| COc1ccc(/C=C/c2ccncc2)c2cc(C(C)C)oc12 [Verbindung 4, (E)-2-Isopropyl-4-[2-(pyrid-4-yl)ethenyl]-7-methoxybenzofuran] | 7,21 |
| COc1ccc(C(O)Cc2ccncc2)c2cc(C(C)C)oc12 (racemic) [Verbindung 2, (±)-4-[1-Hydroxy-2-(pyrid-4-yl)ethyl]-2-isopropyl-7-methoxybenzofuran] | 6,86 |
| COc1ccc(/C=C/c2ccncc2)c2cc(C3CCCC3)oc12 [Verbindung 3, (E)-2-Cyclopentyl-4-[2-(pyrid-4-yl)ethenyl]-7-methoxybenzofuran] | 6,77 |
| COc1ccc(/C=C(\C#N)c2ccncc2)c2cc(C3CCCC3)oc12 [Verbindung 7, (Z)-4-[2-Cyano-2-(pyrid-4-yl)ethenyl]-2-cyclopentyl-7-methoxy-benzofuran] | 6,29 |
| COc1ccc(CC(C#N)c2ccncc2)c2cc(C(C)C)oc12 (racemic) [Verbindung 12, (±)-4-[2-Cyano-2-(pyrid-4-yl)ethyl]-2-isopropyl-7-methoxybenzofuran] | 7,26 |
